The values that follow come from patent US4497803A, “Inclusion compound of lankacidin-group antibiotic and use thereof” (priority 1982, dated 1985).

Values after ≈ are worked out from the molar mass of the structure shown. Like-named read-outs stand apart in the source and are kept apart here.

Data set [1] is described as follows: Solubility of C8-P and C14-P in CD solution, shaken one hour (Example 2). It counts as physicochemical. The protocol:
(§1) Powdery lankacidin C was added to an aqueous solution of cyclodextrin (hereinafter referred to as "CD") to have 4 mg/ml of the lankacidin C contained. After the mixture was stirred with a mixer, it was shaken at 5° C. for 2 hours, and passed through filter paper. The absorbancy of the filtrate was measured at 227-229 nm to determine concentration of the lankacidin C.
Solubilities of lankacidin C 8-propionate (hereinafter referred to as "C8-P"), and lankacidin C 14-propionate (hereinafter referred to as "C14-P") in a solution of CD were measured in the same manner as that of Example 1 except that the shaking was continued for one hour.

Data set [2] in a line: Solubility of lankacidin-group in β-CD solution (10^-2 Mol/l), shaken 30 minutes to one hour (Example 4). The class given is physicochemical. On the procedure:
as §1
The solubility of lankacidin-group in a solution of β-CD (10^-2 Mol/l) were measured in the same manner as that of Example 1 except that the shaking was continued for 30 minutes to one hour.

Data set [3] can be described thus: Solubility of inclusion compound in water. The class given is physicochemical. The protocol: The lankacidin-group is added to each of solutions containing various amounts of cyclodextrin. The minimum concentration of cyclodextrin which dissolves the maximum amount of the lankacidin-group compound and practical concentrations thereof are determined on the basis of amounts of the lankacidin-group compound dissolved in the cyclodextrin solutions. Then, the molar ratio of cyclodextrin to lankacidin-group compound is calculated by the following equation:
Molar ratio=[Molarity of cyclodextrin]:[(Saturation molarity of lankacidin-group compound in a certain concentration of cyclodextrin-solution)-(saturation molarity of lankacidin-group compound in an aqueous solution)].
Moreover, a large amount of the present inclusion compound is dissolved in water and it is kept stably therein. Solubility of the inclusion compound in water is greater than that of landacidin-group compounds in water, when the amount of the inclusion compound dissolved is calculated in terms of lankacidin-group compound, and than saturation concentration of cyclodextrin in water so far as cyclodextrin contained in the inclusion compound is concerned (Table 2).
(1) Solubility of lankacidingroup in water.
(2) Solubility of lankacidingroup in M/100 cyclodextrin solution.
(3) Concentration of cyclodextrin of (2).
(4) Solubility (maximum) of the present inclusion compound (calculated in
terms of lankacidingroup contained) in water.
(5) Concentration of cyclodextrin contained in the inclusion compound of […]

Data set [4] has as its system St. aureus 209P. Briefly: Stability of inclusion compound of lankacidin-group (24° C., for 6 days): antibacterial activity by paper disk assay. It counts as cell-based. The conditions noted are these: methanol, 1000 μg/ml. On the procedure:
The inclusion compound of the present invention is stable in an aqueous solution, although it splits into lankacidin-group moiety and cyclodextrins moiety, when it is in the form of solution or powder, by contacting it with organic solvents (e.g., ethyl acetate, methyl isobutyl ketone) or various carriers (e.g., silica gel, high-porous resins). […] In comparing the antibacterial activity, concentrations of the inclusion compound are calculated in terms of lankacidin-group compound from which the inclusion compound is prepared.
Stability of inclusion compound of lankacidin-group
*1 Paper disk assay using Trypticase soy agar (Baltimore Biologicals Ltd.
U.S.A.) as test culture media.
*2 1000 μg/ml, Lankacidingroup is stable in methanol.
*3 Aqueous solution of the inclusion compound with cyclodextrin (1000
μg/ml calculated in terms of lankacidingroup)

Data set [5] is described as follows: Solubility in β-CD solution, shaken 16 hours (Example 3). It counts as physicochemical. On the procedure:
as §1
The solubilities of lankacidin A, lankacidin C and lankacidinol in a β-CD solution were measured in the same manner as that of Example 1 except that the shaking was continued for 16 hours.

Setting [6] is: aqueous β-cd solution, β-CD 10^-2 Mol/l.
The mark [7] stands for this setting: aqueous β-cd solution, β-CD 10^-3 Mol/l.
Where [8] appears, read: aqueous β-cd solution, β-CD 10^-4 Mol/l.
[9] abbreviates: aqueous γ-cd solution, γ-CD 10^-2 Mol/l.
The mark [10] stands for this setting: aqueous γ-cd solution, γ-CD 10^-3 Mol/l.
The mark [11] stands for this setting: aqueous γ-cd solution, γ-CD 10^-4 Mol/l.
The mark [12] stands for this setting: aqueous β-cyclodextrin solution, β-CD 10^-2 Mol/l, read-out: Solubility.
Setting [13] is: β-CD 0 Mol/l (water), read-out: Solubility.
The mark [14] stands for this setting: aqueous β-cyclodextrin solution.

For the compound `CCC(=O)OC1C=CC(C)=CC(NC(=O)C(C)=O)C2(C)C(=O)OC(CC(O)C=CC(C)=CC1)C(C)C2=O` (centres unmarked) [C8-P, lankacidin C 8-propionate], in data set [1] (CD solutions), the “Solubility in CD solution, C8-P compared with C14-P” value is recorded as “better solubility than that of C14-P”. Also, the solubility at 1 h stood at 3840 µg/mL (≈ 7450 µM) in data set [1] (setting [6]); 328 µg/mL (≈ 636 µM) in data set [1] (setting [7]); 46 µg/mL (≈ 89.2 µM) in data set [1] (setting [8]); 1610 µg/mL (≈ 3120 µM) in data set [1] (setting [9]); 249 µg/mL (≈ 483 µM) in data set [1] (setting [10]); 54 µg/mL (≈ 105 µM) in data set [1] (setting [11]). Further, the solubility at 1 h in data set [1] (water, β-CD, CD 0 Mol/l) turned out to be 18 µg/mL (≈ 34.9 µM); in data set [1] (water, γ-CD, CD 0 Mol/l) it was 19 µg/mL (≈ 36.9 µM).
For `CCC(=O)OC1C=CC(C)=CCC(O)C=CC(C)=CC(NC(=O)C(C)=O)C2(C)C(=O)OC(C1)C(C)C2=O` (centres unmarked) [C14-P, lankacidin C 14-propionate], the solubility at 1 h in data set [1] (setting [6]) is 159 µg/mL (≈ 308 µM); in data set [1] (setting [7]) it was 67 µg/mL (≈ 130 µM); in data set [1] (setting [8]) it was 21 µg/mL (≈ 40.7 µM); in data set [1] (setting [9]) it was 273 µg/mL (≈ 529 µM); in data set [1] (setting [10]), 114 µg/mL (≈ 221 µM); in data set [1] (setting [11]), 35 µg/mL (≈ 67.9 µM). Moreover, the solubility at 1 h in data set [1] (water, β-CD, CD 0 Mol/l) came to 19 µg/mL (≈ 36.9 µM); in data set [1] (water, γ-CD, CD 0 Mol/l) it was 19 µg/mL (≈ 36.9 µM).
Consider `CC(=O)OC1C=CC(C)=CC(NC(=O)C(C)=O)C2(C)C(=O)OC(CC(OC(C)=O)C=CC(C)=CC1)C(C)C2=O` (centres unmarked) [Lankacidin C 8,14-diacetate, lankacidin C 8,14-diacetate], for which the solubility was 681 µg/mL (≈ 1250 µM) in data set [2] (setting [12]) and 16.2 µg/mL (≈ 29.8 µM) in data set [2] (setting [13]). For the same compound, the “ratio: Solubility in a 10^-2 Mol/l solution of CD/solubility in water” value (shortened to “ratio: Solubility”) in data set [2] (β-CD 10^-2 Mol/l vs water) turned out to be 42.0.
For the compound `CC(=O)OC1C=CC(C)=CC(NC(=O)C(C)=O)C2(C)C(=O)OC(CC(O)C=CC(C)=CC1)C(C)C2=O` (centres unmarked) [Lankacidin C 8-acetate, lankacidin C 8-acetate], the solubility in data set [2] (setting [12]) was determined as 2770 µg/mL (≈ 5520 µM); in data set [2] (setting [13]), 74.3 µg/mL (≈ 148 µM). For the same compound, in data set [2] (β-CD 10^-2 Mol/l vs water), the “ratio: Solubility” value was determined as 37.3.
Take `CCCC(=O)OC1C=CC(C)=CC(NC(=O)C(C)=O)C2(C)C(=O)OC(CC(O)C=CC(C)=CC1)C(C)C2=O` (centres unmarked) [Lankacidin C 8-butylate]: the solubility amounted to 404 µg/mL (≈ 763 µM) in data set [2] (setting [12]) and 9 µg/mL (≈ 17 µM) in data set [2] (setting [13]). Further, the “ratio: Solubility” value in data set [2] (β-CD 10^-2 Mol/l vs water) is listed as 44.9.
With `CCCC(=O)OC1C=CC(C)=CCC(O)C=CC(C)=CC(NC(=O)C(C)=O)C2(C)C(=O)OC(C1)C(C)C2=O` (centres unmarked) [Lankacidin C 14-butylate], the solubility amounted to 118 µg/mL (≈ 223 µM) in data set [2] (setting [12]) and 17 µg/mL (≈ 32.1 µM) in data set [2] (setting [13]). In data set [2] (β-CD 10^-2 Mol/l vs water), the “ratio: Solubility” value was 6.94.
`CC(=O)OC1C=CC(C)=CC(NC(=O)C(C)OC(C)=O)C2(C)C(=O)OC(CC(OC(C)=O)C=CC(C)=CC1)C(C)C2=O` (centres unmarked) [Lankacidinol 2',8,14-triacetate]: the “ratio: Solubility” value in data set [2] was 9.0. Moreover, the solubility came to 332 µg/mL (≈ 565 µM) in data set [2] (setting [14]) and 36.9 µg/mL (≈ 62.8 µM) in data set [2] (water).
With `CC(=O)OC1C=CC(C)=CC(NC(=O)C(C)O)C2(C)C(=O)OC(CC(OC(C)=O)C=CC(C)=CC1)C(C)C2=O` (centres unmarked) [Lankacidinol 8,14-diacetate], the results for the solubility in data set [2] (setting [12]) and in data set [2] (setting [13]) were 1780 µg/mL (≈ 3260 µM) and 440 µg/mL (≈ 806 µM), respectively. Moreover, the “ratio: Solubility” value in data set [2] (β-CD 10^-2 Mol/l vs water) came to 4.05.
`CC(=O)OC1C=CC(C)=CCC(O)C=CC(C)=CC(NC(=O)C(C)O)C2(C)C(=O)OC(C1)C(C)C2=O` (centres unmarked) [Lankacidinol A, lankacidinol A]: the solubility in data set [2] (setting [12]) was found to be 3070 µg/mL (≈ 6100 µM); in data set [2] (setting [13]), 170 µg/mL (≈ 338 µM). Further, in data set [2] (β-CD 10^-2 Mol/l vs water), the “ratio: Solubility” value is recorded as 18.1.
Take `CC1=CCC(O)C=CC(C)=CC(NC(=O)C(C)O)C2(C)C(=O)OC(CC(O)C=C1)C(C)C2=O` (centres unmarked) [Lankacidinol, lankacidinol]: the solubility in data set [3] (m/100 cyclodextrin solution, M/100 cyclodextrin, (3) cyclodextrin 11.3 mg/ml, read-out: (2) Solubility of lankacidin-group in M/100 cyclodextrin solution) turned out to be 3780 µg/mL (≈ 8190 µM); in data set [3] (water, read-out: (1) Solubility of lankacidin-group in water) it was 655 µg/mL (≈ 1420 µM). Besides, the “Antibacterial activity, inhibition diameter” value in data set [4] (0 day) is 25.75 mm; in data set [4] (3 days at 24° C.) it was 27.0 mm; in data set [4] (6 days at 24° C.), 30.0 mm. Also, the solubility at 16 h turned out to be 1360 µg/mL (≈ 2950 µM) in data set [5] (aqueous β-cd solution, β-CD 2 × 10^-3 Mol/l); 2130 µg/mL (≈ 4610 µM) in data set [5] (aqueous β-cd solution, β-CD 5 × 10^-3 Mol/l); 2750 µg/mL (≈ 5960 µM) in data set [5] (setting [6]); 914 µg/mL (≈ 1980 µM) in data set [5] (setting [7]); 444 µg/mL (≈ 962 µM) in data set [5] (water, β-CD 0 Mol/l). Besides, the “Solubility in β-CD solution as function of β-CD concentration” value in data set [5] (from the vicinity of 10^-3 Mol/l of β-CD) is “increase in proportion to the concentration of β-CD”.
As to `CC1=CCC(O)C=CC(C)=CC(NC(=O)C(C)O)C(C)C(=O)C(C)=CCC(O)C=C1` (centres unmarked) [Lankacyclinol, lankacyclinol], the “ratio: Solubility” value in data set [2] is on record as 4.38. Also, the solubility in data set [2] (setting [14]) turned out to be 3610 µg/mL (≈ 8650 µM); in data set [2] (water), 824 µg/mL (≈ 1970 µM).
Regarding `OC[C@H]1O[C@@H]2O[C@H]3[C@H](O)[C@@H](O)[C@@H](O[C@H]4[C@H](O)[C@@H](O)[C@@H](O[C@H]5[C@H](O)[C@@H](O)[C@@H](O[C@H]6[C@H](O)[C@@H](O)[C@@H](O[C@H]7[C@H](O)[C@@H](O)[C@@H](O[C@H]8[C@H](O)[C@@H](O)[C@@H](O[C@H]1[C@H](O)[C@H]2O)O[C@@H]8CO)O[C@@H]7CO)O[C@@H]6CO)O[C@@H]5CO)O[C@@H]4CO)O[C@@H]3CO` [cyclodextrin, β-cyclodextrin], the “Concentration of cyclodextrin in its saturated aqueous solution” value in data set [3] (water) came out at 1000 µg/mL.
For Iso-lankacidinol, the solubility in data set [2] (β-CD 0 Mol/l (water)) was found to be 796 µg/mL; in data set [2] (β-CD 10^-2 Mol/l), 3200 µg/mL. For the same compound, the “ratio: Solubility” value in data set [2] (β-CD 10^-2 Mol/l vs water) was 4.02.
